{"source": "ChEMBL document CHEMBL4118279", "about": "“1,3-Di(quinolin-2-yl)guanidine binds to GGCCCC hexanucleotide repeat DNA in C9ORF72” (Bioorg Med Chem Lett, 2018)", "key": {"[1]": {"test": "Binding affinity to GGCCCC/GGCCCC motif-containing duplex DNA (unknown origin) assessed as change in melting temperature at 20 uM by UV-spectrophotometric method"}, "[2]": {"test": "Binding affinity to GGAACC/GGAACC motif-containing duplex DNA (unknown origin) assessed as change in melting temperature at 20 uM by UV-spectrophotometric method"}, "[3]": {"test": "Binding affinity to GGTTCC/GGTTCC motif-containing duplex DNA (unknown origin) assessed as change in melting temperature at 20 uM by UV-spectrophotometric method"}, "[4]": {"test": "Binding affinity to GGGGCC/GGGGCC motif-containing duplex DNA (unknown origin) assessed as change in melting temperature at 20 uM by UV-spectrophotometric method"}, "[5]": {"test": "Binding affinity to GGCCCC/GGGGCC motif-containing duplex DNA (unknown origin) assessed as change in melting temperature at 20 uM by UV-spectrophotometric method"}, "[6]": {"test": "Binding affinity to GGCCCC/GGCCCC motif-containing duplex DNA (unknown origin) assessed as formation of CD bands at 20 uM at 310 to 345 nm by CD spectrometry"}, "[7]": {"test": "Binding affinity to GGCCC/GGCCC motif-containing duplex DNA (unknown origin) assessed as change in melting temperature at 20 uM by UV-spectrophotometric method"}, "[8]": {"test": "Binding affinity to GGTCCC/GGCCCC motif-containing duplex DNA (unknown origin) assessed as formation of CD bands at 20 uM at 300 to 345 nm by CD spectrometry"}, "[9]": {"test": "Binding affinity to GGCTCC/GGCCCC motif-containing duplex DNA (unknown origin) assessed as formation of CD bands at 20 uM at 310 to 345 nm by CD spectrometry"}, "[10]": {"test": "Binding affinity to GGTCCC/GGTCCC motif-containing duplex DNA (unknown origin) assessed as formation of CD bands at 20 uM at 310 to 345 nm by CD spectrometry"}, "[11]": {"test": "Binding affinity to GGTCCC/GGCCCC motif-containing duplex DNA (unknown origin) assessed as change in melting temperature at 20 uM by UV-spectrophotometric method"}, "[12]": {"test": "Binding affinity to GGCTCC/GGCCCC motif-containing duplex DNA (unknown origin) assessed as change in melting temperature at 20 uM by UV-spectrophotometric method"}, "[13]": {"test": "Binding affinity to GGTCCC/GGCTCC motif-containing duplex DNA (unknown origin) assessed as change in melting temperature at 20 uM by UV-spectrophotometric method"}, "[14]": {"test": "Binding affinity to GGTCCC/GGTCCC motif-containing duplex DNA (unknown origin) assessed as change in melting temperature at 20 uM by UV-spectrophotometric method"}, "[15]": {"test": "Binding affinity to GGTTCC/GGCCCC motif-containing duplex DNA (unknown origin) assessed as change in melting temperature at 20 uM by UV-spectrophotometric method"}, "[16]": {"test": "Binding affinity to GGCTCC/GGCTCC motif-containing duplex DNA (unknown origin) assessed as change in melting temperature at 20 uM by UV-spectrophotometric method"}, "[17]": {"test": "Binding affinity to GGCCCC/GGCCCC motif-containing duplex DNA (unknown origin) at 40 uM by ESI-TOF-MS analysis"}, "[18]": {"test": "Binding affinity to GGCCCC/GGCCCC motif-containing duplex DNA (unknown origin) at 80 uM by ESI-TOF-MS analysis"}, "[19]": {"test": "Binding affinity to GGCCCC/GGGGCC motif-containing duplex DNA (unknown origin) at 40 uM by ESI-TOF-MS analysis"}, "[20]": {"test": "Binding affinity to (GGCCCC)9 motif-containing duplex DNA (unknown origin) assessed as melting temperature at 20 uM by UV-spectrophotometric method"}, "[21]": {"test": "Binding affinity to (GGCCCC)9 motif-containing duplex DNA (unknown origin) assessed as formation of CD bands at 20 uM at 245 to 282 nm by CD spectrometry"}, "[22]": {"test": "Binding affinity to (GGCCCC)5 motif-containing duplex DNA (unknown origin) at 80 uM by ESI-TOF-MS analysis"}}, "note": "Calls of active or inactive are those of the source. The rule behind the calls is not given here.", "data": [{"smiles": "N=C(N)Nc1ccc2ccccc2n1", "values": [{"measurement": "ΔTm", "setting": "[1]", "value": 3.4, "unit": "°C"}, {"measurement": "ΔTm", "setting": "[2]", "value": -0.5, "unit": "°C"}, {"measurement": "ΔTm", "setting": "[3]", "value": -1.3, "unit": "°C"}, {"measurement": "ΔTm", "setting": "[4]", "value": -0.7, "unit": "°C"}, {"measurement": "ΔTm", "setting": "[5]", "value": -2.8, "unit": "°C"}, {"measurement": "Activity", "setting": "[6]", "value": "Active"}]}, {"smiles": "N=C(Nc1ccc2ccccc2n1)Nc1ccc2ccccc2n1", "values": [{"measurement": "ΔTm", "setting": "[1]", "value": 19.6, "unit": "°C"}, {"measurement": "ΔTm", "setting": "[2]", "value": 2.1, "unit": "°C"}, {"measurement": "ΔTm", "setting": "[3]", "value": -0.1, "unit": "°C"}, {"measurement": "ΔTm", "setting": "[4]", "value": 0.7, "unit": "°C"}, {"measurement": "ΔTm", "setting": "[5]", "value": -1, "unit": "°C"}, {"measurement": "ΔTm", "setting": "[7]", "value": 7.8, "unit": "°C"}, {"measurement": "Activity", "setting": "[6]", "value": "Active"}, {"measurement": "Activity", "setting": "[8]", "value": "Active"}, {"measurement": "Activity", "setting": "[9]", "value": "inactive"}, {"measurement": "Activity", "setting": "[10]", "value": "inactive"}, {"measurement": "ΔTm", "setting": "[11]", "value": 14.4, "unit": "°C"}, {"measurement": "ΔTm", "setting": "[12]", "value": 11.2, "unit": "°C"}, {"measurement": "ΔTm", "setting": "[13]", "value": 8.9, "unit": "°C"}, {"measurement": "ΔTm", "setting": "[14]", "value": 11.5, "unit": "°C"}, {"measurement": "ΔTm", "setting": "[15]", "value": 8.6, "unit": "°C"}, {"measurement": "ΔTm", "setting": "[16]", "value": 8.3, "unit": "°C"}, {"measurement": "Activity", "setting": "[17]", "value": "Active"}, {"measurement": "Activity", "setting": "[18]", "value": "Active"}, {"measurement": "Activity", "setting": "[19]", "value": "inactive"}, {"measurement": "Tm", "setting": "[20]", "value": 67.8, "unit": "°C"}, {"measurement": "Activity", "setting": "[21]", "value": "Active"}, {"measurement": "Activity", "setting": "[22]", "value": "Active"}]}]}
